In article PMC3127118, “Characterization of a Deswapped Triple Mutant Bovine Odorant Binding Protein” (2011) one finds Kd data, which are given here for 1 compound.

The target in this test is T1, GCC-bOBP (monomeric triple mutant of bovine odorant binding protein) (Bos taurus, UniProt P07435, W64C/INS121G/H155C).
T1 construct: GCC-bOBP, deswapped monomeric triple mutant
T1 sequence (P07435 with tags, fused parts or gaps W64C/INS121G/H155C): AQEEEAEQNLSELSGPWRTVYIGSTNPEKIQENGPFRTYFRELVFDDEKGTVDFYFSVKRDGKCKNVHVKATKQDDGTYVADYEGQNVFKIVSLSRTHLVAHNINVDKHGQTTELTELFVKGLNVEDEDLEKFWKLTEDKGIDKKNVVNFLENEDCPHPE
The test can be described thus: fluorescence titration (direct AMA fluorescence, excitation […] nm; FRET from Trp, excitation […] nm, gave Kd […]), pH […] °C.

Take `Nc1cccc2cc3ccccc3cc12` [AMA, 1-aminoanthracene]: the Kd came out at 5 ± 0.2 µM.

For orientation: Kd means the constant that tells how readily two partners part at equilibrium.
